# Test results taken from patent US5614504A, “Method of making inosine monophosphate derivatives and immunopotentiating uses thereof” (The University of South Florida, priority 1995, dated 1997).
# Legend:
# murine splenocytes = experiment: Murine splenocyte proliferation with PHA or LPS; assay type: cell-based, BALB/c mice; conditions: for tritiated thymidine incorporation, LPS 10 μg/ml / tritiated thymidine incorporation, PHA 0.5 μg/ml: mean CPM±SEM
# Description: In vitro: Both human peripheral blood lymphocytes (HPBL) and mouse spleen lymphocytes (MSL) were employed. Proliferation was assayed by tritiated thymidine incorporation, as described in Hadden et al. (1975) and Hadden et al. (1986). For HPBL transformation, PHA and PWM were used at 0.5 μg/ml. For MSL transformation, Con A was used at 0.5 μg/ml, phytohemagglutinin (PHA, Murex Diagnostics, Atlanta, Ga.) at 0.5 μg/ml and lipopolysaccharide endotoxin (LPS, Sigma, St. Louis, Mo.) at 10 μg/ml. When protected-IMP derivatives were added, they were added at the onset of culture at varying concentrations ranging from 0.1 μg/ml to 100 μg/ml.
# Murine splenocytes were obtained from BALB/c mice, 4-12 months old, by standard procedures (Hadden et al., 1975). They were cultured in microwell plates at 1.5×10^6 cells/ml of minimal essential media (MEM, Gibco Labs, Grand Island, N.Y.) with 5% fetal calf serum (FCS, Hyclone Labs, Logan, Utah) and tested for their proliferative response to mitogens as measured by incorporation of (^3 H) tritiated thymidine (New England Nuclear, Wilmington Del., […]; 2.5 μCi/ml) during a terminal pulse followed by liquid scintillation spectrometry. Human cells were seeded at […] and cultured for 48 hours with an 18 hour pulse with ^3 H-thymidine.
# In a further experiment, murine splenocytes were incubated with PHA or LPS and MIMP (1-100 μg/ml). […] Splenocyte responses to PHA preferentially reflect T lymphocyte responses, confirming the responses seen with ConA. The LPS responses also parallel the previous experiment.
# The data was obtained from four different animals and represent quadruplicate samples for each concentration. They are expressed as mean CPM±SEM, with * showing a significance of p<0.05 and ** showing p<0.01.
# anti-HBs = experiment: Anti-HBs production in normal DBA/2 mice (EIA); assay type: in vivo; conditions: for anti-HBs, Day 14 / anti-HBs, Day 21: 50 mg/kg
# Text: Different strains of mice, coded by Pre-S2 zone S-gene HBV for their immune responses for proteins place them in the following haplotype order (Benaceraf and McDevitt, 1972): H-2^b >H-2^d >H-2^s >H-2^k>H-2^f. […] Therefore, male DBA/2 mice weighing 16-18 grams were obtained from the Animal Laboratory, Academy of Medical Science, Russia, and were used in the examples set forth herein. This line of mice was chosen as they are poor responders to hepatitis B vaccine.
# Serum specimens from immunized mice were tested for the presence of anti-HBs in an enzyme immunoassay (EIA) using the diagnostic kits of Roche Diagnostica as per the manufacturer's instructions. The anti-HBs EIA kit (Roche), has a sensitivity of <10 IU/1.
# Antibody concentration was determined with the help of calibration curves designed on the basis of the results of anti-HBs detection in standard serum panel (Roche Diagnostica) with the concentrations, as follows: 10 IU/l; 50 IU/l; 100 IU/l and 150 IU/l. The results of the two experiments were used for the calculation of mean values.
# HBsAg was administered at a dose of […] in 0.2 ml PBS (pH 7.4) twice with an interval of two weeks between injections.
# A protected-IMP, MIMP, was introduced both orally or intraperitoneally at a dose of 50 mg/kg.
# The results of anti-HBs detection in the control group of mice treated with HBsAg alone and in the groups treated with the combination of HBsAg and MIMP, as prepared in the examples, are presented in Table 9. The various vaccination schedules are provided in the following list.
# γ-IFN = experiment: PHA-induced γ-IFN production; assay type: cell-based; conditions: preliminary data
# [1] = scheme 3: HBsAg + MIMP i.p. simultaneously then MIMP per os, p < 0.01
smiles,measurement,setting,value
"COP(=O)(O)OC[C@H]1O[C@@H](n2cnc3c(=O)[nH]cnc32)[C@H](O)[C@@H]1O [Me-IMP, Methyl-5'-inosine-monophosphate]","tritiated thymidine incorporation, LPS 10 μg/ml",murine splenocytes; MIMP 1 μg/ml,47261 ± 997 CPM
same,"tritiated thymidine incorporation, PHA 0.5 μg/ml",murine splenocytes; MIMP 1 μg/ml,106647 ± 4917 CPM
same,"tritiated thymidine incorporation, LPS 10 μg/ml","murine splenocytes; MIMP 10 μg/ml, p<0.05",57481 ± 2343 CPM
same,"tritiated thymidine incorporation, PHA 0.5 μg/ml","murine splenocytes; MIMP 10 μg/ml, p<0.05",117247 ± 6500 CPM
same,"tritiated thymidine incorporation, PHA 0.5 μg/ml","murine splenocytes; MIMP 100 μg/ml, p<0.01",124801 ± 6630 CPM
same,"tritiated thymidine incorporation, LPS 10 μg/ml","murine splenocytes; MIMP 100 μg/ml, p<0.05",55153 ± 6176 CPM
same,splenocyte responses in the absence of mitogens,murine splenocytes; MIMP 1-100 μg/ml,did not affect
same,proliferative responses in the presence of mitogens,"murine splenocytes; MIMP 1-100 μg/ml, PHA or LPS",progressively and significantly augumented
same,"anti-HBs, Day 14",anti-HBs; scheme 2: HBsAg + MIMP per os 30 minutes prior to vaccine,< 10 IU/1
same,"anti-HBs, Day 21","anti-HBs; scheme 2: HBsAg + MIMP per os 30 minutes prior to vaccine, 0.01 < p < 0.05",370 IU/1
same,"anti-HBs, Day 14",anti-HBs; [1],100 IU/1
same,"anti-HBs, Day 21",anti-HBs; [1],610 IU/1
same,"anti-HBs, Day 21","anti-HBs; scheme 4: HBsAg + MIMP i.p. simultaneously, 0.01 < p < 0.05",420 IU/1
same,"anti-HBs, Day 14","anti-HBs; scheme 4: HBsAg + MIMP i.p. simultaneously, p < 0.01",100 IU/1
same,level of antibodies to HBsAg,anti-HBs; single intraperitoneal or single oral dose of 50 mg/kg,significant increase
same,effect on PHA-induced γ-IFN,γ-IFN,only a small effect
